Data as given in publication PMC6707612, “Cyclic-di-GMP binds to histidine kinase RavS to control RavS-RavR phosphotransfer and regulates the bacterial lifestyle transition between virulence and swimming” (PLoS Pathogens, 2019).

Tests used:
[1] = system: DHp-CA^S636A, DHp-CA^D638A and DHp-CA^L652A; assay: microscale thermophoresis (MST) binding, Ala-substituted DHp-CA proteins; design: species or system Xanthomonas campestris pv. campestris; details: compared with positive control DHp-CA protein; fl-c-di-GMP used in the MST assay
Description: (§1) Fig 6 Arg^656 in the CA domain of RavS is a key residue for c-di-GMP binding. (a, b) c-di-GMP binds to the DHp-CA domain of RavS. PAS-A, PAS-B and DHp-CA in (a), and DHp and CA domains of RavS in (b), were purified and the interaction with c-di-GMP was measured by MST. Each assay was repeated three times. Standard deviations are shown. (c) Molecular docking model of the interaction between c-di-GMP and DHp-CA of RavS. c-di-GMP is shown as a ball-and-stick model and DHp-CA is shown in ribbon representation. (d) Schematic view of the predicted docking site between c-di-GMP and DHp-CA. Potential hydrogen bonds are indicated as blue dashed lines. Autodock software was used to predict the interaction. […] Ten recombinant proteins of the DHp-CA region, each containing a substitution of a putative essential residue involved in c-di-GMP binding, were used in the MST assay to quantify the Kd value of RavS–c-di-GMP binding. fl-c-di-GMP was used in the MST assay. […] The reactions were terminated with 5× SDS loading buffer and the products were separated by 12% SDS-PAGE, exposed to a phosphor screen and analysed by Typhoon FLA7000. […]
(§2) The interaction between c-di-GMP nucleotides and various proteins was measured by using MST with a fluorescein-labelled c-di-GMP (2′-Fluo-AHC-c-di-GMP, abbreviated as fl-c-di-GMP; 2′-Fluo-AHC-c-di-AMP, fl-c-di-AMP; 2′-Fluo-AHC-cGMP, fl-cGMP; Biolog, Germany). […]

[2] = system: DHpCA^D637A, DHp-CA^G639A, DHp-CA^D640A, DHp-CA^I653A, DHp-CA^E657A and DHp-CA^L666A; assay: as above; design: species or system Xanthomonas campestris pv. campestris; details: compared with DHp-CA protein; fl-c-di-GMP used in the MST assay
Description: as §1, §2

In the case of Nc1nc2c(ncn2[C@@H]2O[C@@H]3COP(=O)(O)O[C@H]4[C@@H](O)[C@H](n5cnc6c(=O)[nH]c(N)nc65)O[C@@H]4COP(=O)(O)O[C@H]3[C@H]2O)c(=O)[nH]1 [c-di-GMP, Cyclic di-GMP], the “fold increases in Kd values” [1] is reported as 1–2 fold and the “change in c-di-GMP binding affinity” value [2] is reported as “no significant change”.
